Results taken from patent US10464901B2, “Composition including benzene diamine derivative for preventing or treating degenerative brain diseases” (UNIST(ULSAN NATIONAL INSTITUTE OF SCIENCE AND TECHNOLOGY), priority 2017, dated 2019).

Columns and labels:
[1] = system: Aβ40 and Aβ42; experiment: Aβ aggregation inhibition in the presence or absence of metals, overall statements (FIG. 1); assay type: biochemical; settings: two kinds of Aβ (Aβ40, Aβ42)
Excerpt: (§1) It was examined whether the benzene diamine derivatives of the present disclosure have inhibitory effects on Aβ aggregation. Aβ has two isoforms, and therefore, effects on Aβ40 and Aβ42 were examined, respectively. When metals are involved in protein folding, the probability of abnormal folding is high. In this case, the probability of Aβ aggregate formation is further increased.
(§2) In order to perform molecular analysis of Aβ aggregation-inhibitory effects of the benzene diamine derivatives of the present disclosure, gel electrophoresis and Western blotting were performed by using anti-Aβ antibody (6E10). As a control group, compound 1
(§3) In detail, each sample (10 μl) was separated on a 10-20% Tris-tricine gel (Invitrogen, Grand Island, N.Y., USA). After separation, the proteins were transferred onto a nitrocellulose membrane and blocked with bovine serum albumin (BSA, 3% w/v, Sigma-Aldrich, St Louis, Mo., USA) in Tris-buffered saline (TBS) containing 0.1% Tween-20 (TBS-T) at room temperature for 2 hours or at 4° C. overnight. The membrane was incubated in a 2% BSA (w/v in TBS-T) solution, together with anti-Aβ antibody (6E10, 1:2,000, Covance, Princeton, N.J., USA), at room temperature for 4 hours or at 4° C. overnight. The membrane was washed with TBS-T (3×, 10 min), and a secondary mouse antibody (1:5,000 in 2% BSA w/v in TBS-T; Cayman Chemical Company, Ann Arbor, Mich., USA) was added thereto, followed by incubation at room temperature for 1 hour. Thermo Scientific SuperSignal West Pico Chemiluminescent Substrate (Thermo Scientific, Rockford, Ill., USA), Biosesang ECL Plus kit (Biosesang, Gyeonggi-do, Republic of Korea), or homemade ECL kit53 were used for visualization, and ChemiDoc MP Imaging System (Bio-Rad, Hercules, Calif., USA) was used for detection.

[2] = system: human neuroblastoma cell line SK-N-BE(2)-M17 (M17); experiment: Cytotoxicity-inhibitory effect, MTT cell viability with Aβ with or without metals; assay type: cell-based; settings: M17 cells, irrespective of Aβ isoforms and metals, FIG. 4
Protocol: It was examined whether the benzene diamine derivatives of the present disclosure have cytotoxicity-inhibitory effect. Aβ aggregation and reactive oxygen species may cause cytotoxicity in neuronal cells, resulting in neuronal cell death.
In detail, human neuroblastoma cell line SK-N-BE(2)-M17 (M17) (ATCC, Manassa, Va., USA) was cultured in a 1:1 minimum essential medium (MEM; GIBCO, Grand Island, N.Y., USA), Ham's F12K Kaighn's Modification Media (F12K; GIBCO) supplemented with 10% (v/v) fetal bovine serum (FBS; Atlanta Biologicals, Flowery Branch, Ga., USA), 100 U/mL penicillin (GIBCO), and […] streptomycin (GIBCO). M17 cells were seeded in a 96-well plate (150,000 in 100 μl per well), and treated with various concentrations of the compound (0-50 μM, 1% v/v DMSO) in the presence or absence of CuCl2 or ZnCl2 (a metal/ligand ratio of 1:1 or 1:2), and in the presence or absence of Aβ 40 (Aβ:metal:compound=10:10:20 μM). After incubation at 37° C. for 24 hours, 25 μl of MTT (3-(4,5-dimethylthiazol-2-yl)-2,5-diphenyltetrazolium bromide) (5 mg/mL in PBS, pH 7.4) (GIBCO) was added to each well, and each plate was incubated at 37° C. for 4 hours. […] Absorbance at 600 nm was measured by using a microplate reader.

[3] = Antioxidant effect: free organic radical-scavenging activity (ABTS) using cell lysate; assay type: biochemical; settings: Table 1 summary of Example 3; symbols not defined
Protocol: It was examined whether the benzene diamine derivatives of the present disclosure have an antioxidant effect. It is known that reactive oxygen species induces oxidative stress in neuronal cells to cause neuronal cell death and causes protein misfolding to induce formation of Aβ aggregates. Therefore, compounds having antioxidant effects may be candidates for preventing or treating dementia.
Free organic radical-scavenging activity of the compound was determined according to a protocol of Cayman Chemical Company (Ann Arbor, Mich., USA) with slight modifications. For antioxidant analysis using a cell lysate, cells were seeded in a 6-well plate, and cultured until they reached 80-90% confluence. A cell lysate was prepared according to a known method, washed with a cold phosphate buffer solution (PBS; pH 7.4, GIBCO), and then harvested. Cell pellet was produced by centrifugation (2,000 g, 4° C., 10 min). This pellet was sonicated (5 sec pulse, 20 sec interval, three times) in 2 ml of cold assay buffer S13 (5 mM potassium phosphate, pH 7.4; 0.9% NaCl; 0.1% glucose) on ice. A cell lysate was centrifuged at 4° C. for 10 minutes at 5,000 g. A supernatant was removed, and left on ice until use. To the cell lysate supernatant (10 μl), the compound, metmyoglobin, ABTS (2,2′-azino-bis-3-ethylbenzothiazoline-6-sulfonic acid), and hydrogen peroxide were sequentially added. The mixture was incubated on a shaker at room temperature for 5 minutes, and absorbance at 750 nm was measured. The compound at a final concentration of 45, 90, 135, 180, 225, or 330 μM and Trolox (6-hydroxy-2,5,7,8-tetramethyl-chroman-2-carboxylic acid, dissolved in EtOH) were used. Antioxidant activity was calculated according to the measured absorbance [% inhibition=100×(A0−A)/A0, A0 represents absorbance of the supernant of the cell lysate]. Each measurement was repeated in triplicate.

[4] = PAMPA-BBB analysis; assay type: in vitro ADME
Protocol: […] PAMPA-BBB analysis was performed by using a PAMPA Explorer kit (pION, Inc. Billerica, Mass., USA) according to the manufacture's protocol with slight modifications. […] The prepared solution was put in each well of a donor plate (200 μl, repeated 12 times). A polyvinylidene fluoride (PVDF, […]) filter membrane on an acceptor plate was coated with BBB-1 lipid formulation (5 μl, pION). The acceptor plate was placed on top of the donor plate to generate a “sandwich”. Brain sink buffer (BSB, 200 μl, pION) was added to each well of the acceptor plate. The sandwich-shaped plate was incubated for 4 hours at room temperature without stirring. UV-vis spectra of the solutions in the reference, acceptor, and donor plates were measured using a microplate reader. A PAMPA Explorer software [v. 3.8 (pION)] was used to calculate the −log Pe values for compounds. CNS±designations were assigned by comparison with compounds that were identified in previous reports.

[5] = system: Zn(II)-Aβ; experiment: Aβ aggregation inhibition, gel electrophoresis and Western blotting with anti-Aβ antibody (6E10); assay type: biochemical; settings: Table 1 summary of Example 2; symbols not defined
Excerpt: as §1, §2, §3

[6] = system: Cu(II)-Aβ; experiment: as above; assay type: biochemical; settings: Table 1 summary of Example 2; symbols not defined
Excerpt: as §1, §2, §3

[7] = system: Metal-free Aβ; experiment: as above; assay type: biochemical; settings: Table 1 summary of Example 2; symbols not defined
Excerpt: as §1, §2, §3

Row | SMILES | inhibitory effect on Aβ aggregation [1] | effect in cytotoxicity-inhibition test (worded result) [2] | Reactive oxygen species (antioxidant effect) [3] | PAMPA-BBB permeability class ([4]; 50 μM, incubation 4 hrs, U.V) | Papp at 4 h, 50 μM ([4]; PAMPA, pH 7.4, 50 μM, incubation 4 hrs, U.V, read-out: Pe) [×10⁻⁶ cm/s] | CNS± designation ([4]; assigned by comparison with compounds identified in previous reports) | Zn(II)-Aβ (inhibitory effect on Aβ aggregation) [5] | Cu(II)-Aβ (inhibitory effect on Aβ aggregation) [6] | Metal-free Aβ (inhibitory effect on Aβ aggregation) [7]
1 | c1ccc(NCc2ccccn2)cc1 [Compound 1, reference compound] | did not show inhibitory effect on Aβ aggregation under any conditions | did not show excellent Aβ aggregation-inhibitory effect | No effect | – | – | – | – | – | –
2 | CC(=O)[C@H]1CC[C@H]2[C@@H]3CCC4=CC(=O)CC[C@]4(C)[C@H]3CC[C@]12C [Progesterone, reference compound] | – | – | – | High | 46.7 | (CNS+) | – | – | –
3 | CN(C)c1ccc(NCc2nccn2C)cc1 [Compound 4, N^1,N^1-dimethyl-N^4-((1-methyl-1H-imidazol-2-yl)methyl)benzene-1,4-diamine] | showed inhibitory effect on Aβ with metals | – | ◯ | – | – | – | ◯ | ◯ | –
4 | Nc1ccc(NCc2ccc(F)cn2)cc1 [Compound 3, N^1-((5-fluoropyridin-2-yl)methyl)benzene-1,4-diamine] | showed inhibitory effect on both two kinds of Aβ, irrespective of the kind and presence of metals | – | ◯ | – | – | – | ◯ | ◯ | ◯
5 | CN(C)c1ccc(NCCS)cc1 [Compound 5, 2-((4-(dimethylamino)phenyl)amino)ethane-1-thiol] | showed inhibitory effect on both two kinds of Aβ, irrespective of the kind and presence of metals | – | ◯ | – | – | – | ◯ | ◯ | ◯
